Assay results reported in PMC7617459, “Comparative Evaluation and Profiling of Chemical Tools for the Nuclear Hormone Receptor Family 2” (ACS pharmacology & translational science, 2025).
Like-named read-outs stand apart in the source and are kept apart here.

Experiments:
[1] = tested on: TLX; conditions: cited from earlier work
[2] = tested on: human insulin promoter; conditions: insulin promoter assay; cited from earlier work
[3] = target: T1, HNF4α (Homo sapiens, UniProt P41235); assay: Gal4-hybrid reporter gene assay HNF4α; conditions: 30 µM, HEK293T
T1 sequence (P41235 147-377 limits assumed): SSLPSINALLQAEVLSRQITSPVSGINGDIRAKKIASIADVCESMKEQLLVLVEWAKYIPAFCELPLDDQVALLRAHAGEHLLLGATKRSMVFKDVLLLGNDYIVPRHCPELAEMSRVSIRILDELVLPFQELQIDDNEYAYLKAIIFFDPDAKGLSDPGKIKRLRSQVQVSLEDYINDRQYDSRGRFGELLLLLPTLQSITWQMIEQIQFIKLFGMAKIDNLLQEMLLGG
Procedure: (§1) HEK293T cells (German Collection of Microorganisms and Cell Culture GmbH, DSMZ) were cultured in Dulbecco’s modified Eagle’s medium (DMEM), high glucose supplemented with 10% fetal calf serum (FCS), sodium pyruvate (1 mM), penicillin (100 U/mL), and streptomycin (100 μg/mL) at 37 °C and 5% CO2 and seeded in 96-well plates (3 × 10^4 cells/well). The medium was changed to Opti-MEM without supplements, and the cells were transiently transfected with one pFA-CMV-hNR-LBD clone, pFR-Luc, and pRL-SV40 using Lipofectamine LTX reagent (Invitrogen, Thermo Fisher Scientific) according to the manufacturer’s instructions. Five hours after transfection, cells were incubated with the test compounds in Opti-MEM supplemented with penicillin (100 U/mL), streptomycin (100 μg/mL), and 0.1% DMSO. Each sample was set up in duplicates and tested in at least three independent experiments. After 16 h incubation, luciferase activity was measured using the Dual-Glo Luciferase Assay System (Promega) according to the manufacturer’s protocol on a Tecan Spark luminometer (Tecan Deutschland GmbH, Crailsheim, Germany). Firefly luminescence was divided by Renilla luminescence and multiplied by 1000 resulting in relative light units (RLUs) to normalize for transfection efficiency and cell growth. Fold activation was obtained by dividing the mean RLU of the test compound by the mean^a RLU of the untreated control, and relative activation was calculated by dividing the fold activation of a test sample by the fold activation of the respective reference agonist. Antagonistic effects were evaluated by coincubation of the test compound with the respective reference ligand.

[4] = tested on: fructose-1,6-bisphosphatase 1 (FBP1); set-up: method as in PMID 33114319; conditions: HepG2 cells; cited from earlier work
[5] = tested on: RXRβ; conditions: cited from earlier work
[6] = tested on: RXRα; conditions: cited from earlier work; for EC50: reporter gene assay
[7] = tested on: adipocyte-derived stem cells (ASC); assay: Adipogenesis assay (ASC differentiation, Oil Red O); format: cell-based; conditions: 18 days
Source text: Using the small collection of NR2 modulators with sufficient reproducible on-target activity and selectivity (6, 7, 9, 11, 12, 13, 19, 21, 22, 23, 25), we next explored their application as a chemogenomics set.[161] To probe the potential of the collection to link phenotypic effects and target in a complex cellular setting, we determined compound effects on the differentiation of adipocyte-derived stem cells (ASC). Under cyclic treatment with insulin, isobutylmethylxanthine, dexamethasone and the PPARγ agonist pioglitazone,[162] these cells develop into adipocytes and accumulate large amounts of fat. However, adipogenesis is orchestrated by many transcription factors[163] and could potentially involve a role of NR2 receptors. […] There was no uniform effect of RXR modulators on fat deposition in adipocytes, possibly due to diverse off-targets of 6 and 11. […] Among TLX ligands the agonist 19 increased the amount of fat and lipid particle size, pointing to enhanced adipogenesis. The inverse TLX agonist 21 had no effect. PNR ligand effects in the adipogenesis model were generally weak.
Differentiation experiments of ASC52telo, hTERT cells (ATCC® SCRC-4000™) were conducted according to a previously described procedure.[162] In brief, the cells were grown in DMEM high-glucose medium supplemented with 10% fetal calf serum, sodium pyruvate (1 mM), penicillin (100 U/mL), and streptomycin (100 μg/mL) at 37 °C and 5% CO2. The cells were seeded in standard culture medium at a density of 5x10^4 cells per well in 96-well plates. After adherence overnight, cells were incubated with differentiation medium, composed of standard culture medium supplemented with human insulin (10 µg/mL, #I3536, Merck KgaA, Darmstadt, Germany), dexamethasone (1 µM, #D4902, Merck KgaA, Darmstadt, Germany,), isobutylmethylxanthine (0.5 mM, #I5879, Merck KgaA, Darmstadt, Germany), DMSO (final concentration 0.1%) and the respective test compounds or pioglitazone at 1 µM. The cells were kept in a differentiation medium for 48-72 h followed by a 24 h incubation with standard culture medium supplemented with 10 µg/mL insulin only. This cycle was repeated five times accounting for a total differentiation time of 18 days. The indicated test compounds at 0.1% DMSO or 0.1% DMSO alone as vehicle control were supplemented freshly with every medium exchange. After the 18-day differentiation procedure and test compound treatment, the cells were washed with phosphate buffered saline (PBS) once and fixed with formalin (10%, stabilized with methanol, 100 µL per well, #15071, Morphisto GmbH, Offenbach am Main, Germany) for 15 min at room temperature. The fixing solution was aspirated, and the fixed cells were washed twice with 50% ethanol solution with the second wash step incubating for 15 min at room temperature to equilibrate the specimens for staining. Oil Red O (#O0625, Merck KgaA, Darmstadt, Germany) was prepared at 0.5% (w/v) in 50% ethanol (v/v) and 5% salicylic acid (w/v), filtered with grade 595 Whatman® filter paper (#311611, Schleicher & Schuell GmbH, London, U.K.) and a 0.2 µm syringe filter (FP 30/0,2 CA-S, #10462200, Schleicher & Schuell GmbH, London, U.K.). Upon equilibration, specimens were incubated with 100 µL of 0.5% Oil Red O solution for 45 min at room temperature before the staining solution was aspirated and the wells were washed once with 50% (v/v) ethanol solution and three times with ddH2O. Specimens were kept in ddH2O for subsequent analysis. For each well, two pictures were taken at a 4x magnification using a Motic®AE31E inverted microscope and a Moticam 1080 (Motic Hong Kong Ltd.). Images were corrected for skewed illumination, Oil Red O crystal precipitates were identified and removed, and the resulting processed pictures were dichromized to extract gray values from the red channel using CellProfiler (Version 4.2.6). […]

[8] = tested on: RXRγ; conditions: cited from earlier work; for EC50: reporter gene assay
[9] = target: T2, RXRα (Homo sapiens, UniProt P19793); assay: Gal4-hybrid reporter gene assay RXRα
T2 sequence (P19793 227-458 limits assumed): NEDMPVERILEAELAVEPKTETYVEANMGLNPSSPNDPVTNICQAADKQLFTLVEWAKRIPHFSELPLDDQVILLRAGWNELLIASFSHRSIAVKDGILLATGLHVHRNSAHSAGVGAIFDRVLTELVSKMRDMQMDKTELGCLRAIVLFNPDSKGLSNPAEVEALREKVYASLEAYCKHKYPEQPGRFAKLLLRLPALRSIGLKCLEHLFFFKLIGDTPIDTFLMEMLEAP
Procedure: as §1

[10] = tested on: TLX; conditions: read-out: EC50 TLX activation; cellular reporter gene assay; cited from earlier work
[11] = target: TLX; conditions: cited from earlier work; remark: listed apart in the source
[12] = tested on: TLX-regulated genes; conditions: cited from earlier work
[13] = tested on: COS-7 cells; assay: Multiplex toxicity assay; format: cell-based; conditions: 24 h, at active concentration
Procedure: COS-7 cells (DSMZ #ACC 60) were cultured at 37°C and 5% CO2 in DMEM high glucose medium supplemented with sodium pyruvate (1 mM), penicillin (100 U/mL), streptomycin (100 µg/mL), and 10% fetal calf serum (FCS). After aspirating the wells, the cells were seeded at 1x10^5 cells per well in complete culture medium. […] Each sample was prepared in at least 4 biologically independent replicates. After incubation for 24 h, the wells were aspirated and incubated for 30 min with stimulation medium containing 1 µM NucView® 405 fluorogenic caspase-3 substrate (#10405, Biotium, Fremont, USA) and Live-or-Dye Nuc-Fix Red (0.05x, Biotium, Inc., Fremont, CA, 1691 USA) to detect apoptosis and necrosis, respectively. After incubation, a total of 6 fluorescence images per well at 10x magnification were taken to detect NucView®-positive (Ex: 381–400 nm, Em: 414–450 nm) and Live-or-Dye-positive cells (Ex: 543−566 nm, Em: 580−611 nm) using on a Tecan Spark Cyto (Tecan Group AG). Reference readings for background correction and detection of auto-fluorescence were taken at 414–450 nm prior to staining. Thereafter, wells were aspirated, the cells were incubated for 3 h with 90 µL culture medium (0.2% FCS) and 10 µL Cell Counting Kit-8 solution (CCK-8, MedChem Express #HY-K0301), and absorbance was measured at 1, 2, and 3h of incubation at 450 nm on a Tecan Spark Cyto to assess metabolic activity of the cells. Before drug administration, after the first medium exchange, 24 h after drug administration, and after fluorescence imaging cell confluence was assessed using the Tecan Spark Cyto, to account for changes in cell confluence due to drug administration and cell handling. The number of apoptotic cells, metabolic activity, and changes in cell confluence in response to drug treatment were all normalized to the vehicle control of each biological replicate individually.

[14] = target: T3, TLX (Homo sapiens, UniProt Q9Y466); assay: Gal4-hybrid reporter gene assay TLX; format: cell-based; conditions: selected test concentration (Figure 3)
T3 construct: encoding the hinge region and the LBD of the canonical isoform of the respective human nuclear receptors; expressed in transfected cells; host or cells: HEK293T
T3 sequence (Q9Y466 155-383 limits assumed): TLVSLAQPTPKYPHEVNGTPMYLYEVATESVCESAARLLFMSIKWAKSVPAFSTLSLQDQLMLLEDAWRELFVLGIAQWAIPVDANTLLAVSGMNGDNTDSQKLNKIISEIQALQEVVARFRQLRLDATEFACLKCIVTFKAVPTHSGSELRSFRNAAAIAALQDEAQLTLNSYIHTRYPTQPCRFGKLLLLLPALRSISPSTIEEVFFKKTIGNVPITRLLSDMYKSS
Procedure: as §1

[15] = tested on: nuclear receptors; assay: Selectivity profiling in Gal4-hybrid reporter gene assay panel; format: cell-based, human; conditions: at active concentration
Procedure: Compounds were tested at concentrations around EC90 according to the literature or at the highest nontoxic concentration (from the multiplex toxicity assay). […] (b) Selectivity profiling of NR2 modulators in a representative panel of nuclear receptors outside the NR2 family. […] Effects <5% of the respective reference ligands were considered as not relevant and omitted. Only effects are shown that are statistically significant against VP16 ctrl (Figure S3); n = 3.
as §1

[16] = tested on: full-length TLX; conditions: reporter gene assay; cited from earlier work
[17] = target: TLX LBD; conditions: ITC; cited from earlier work
[18] = tested on: TLX expression; conditions: cited from earlier work
[19] = reporter gene assays, read-out: IC50 (counteracting TLX repressor activity)
[20] = reporter gene assay, read-out: RXRβ cellular activity/potency
[21] = read-out: RXRγ cellular activity/potency

In the case of `Cn1c(=O)[nH]c2nc[nH]c2c1=O` [1-methylxantine], the IC50 [1, 19] is listed as 9000 nM.

For `CC(Cc1cccc(C(F)(F)F)c1)NCCOC(=O)c1ccccc1` (stereo not shown) [compound 2, benfluorex], the EC50 [2] is given as 24400 nM and the “effects on HNF4 activity” value [3] is given as “no effects”.

In the case of `CCN(CCCc1ccccc1)CCCc1ccccc1` [compound 3, alverine], the EC50 [2] is given as 3500 to 6800 nM and the “effects on HNF4 activity” value [3] is given as “no effects”.

For `O=C(O)c1cc(-c2ccccc2)ccc1O` [compound 4], the “expression of HNF4 target gene FBP1” value [4] is listed as “diminished expression”.

In the case of `O=C(O)[C@@H]1C[C@H]1c1nc(-c2ccccc2)c(-c2cc(C(F)(F)F)cc(C(F)(F)F)c2)o1` [compound 7], the EC50 [5, 20] is listed as 1.4 nM, the EC50 ([6]; read-out: RXRα cellular activity/potency) is listed as 5 nM and the “Oil red O positive area (amount of fat)” value [7] is listed as “affected neither”. The “fat droplet (particle) size” value [7] was “affected neither” and the EC50 [8, 21] was 4 nM.

For `CC1=C2[C@H](/C=C(\C)C(=O)O)CC[C@@H](C)[C@H]2CC1` [compound 9, Valerenic acid], the RXRβ fold activation [5] is given as 69 fold act, the EC50 ([5]; reporter gene assay, read-out: RXRβ EC50) is given as 5200 nM and the RXRα fold activation [6] is given as 9 fold act. The EC50 ([6]; read-out: RXRα EC50) was 27000 nM, the RXRα activation ([9]; 10 µM) was “weak RXRα activation” and the RXRγ fold activation [8] was 4 fold act. For the same compound, the EC50 ([8]; read-out: RXRγ EC50) was 43000 nM.

For `CCCCCOc1cc2c(cc1-c1cc(/C=C/C(=O)O)ccc1O)C(C)(C)CCC2(C)C` [compound 12], the IC50 ([5]; reporter gene assay, no precise value reported, read-out: RXRb cellular activity/potency (antagonist)) is listed as about 50 nM and the “effect on bexarotene-induced RXR activation” value ([9]; 1 µM, coincubation with bexarotene) is listed as “robustly blocked”.

For `CC(C)c1c(CN(C)C(C)Cc2ccccc2)n(C)n(-c2ccccc2)c1=O` (stereo not shown) [compound 14], the EC50 [10] is given as 9200 nM and the Kd [11] is given as 6600 nM.

In the case of `CC(C)NCC(O)COc1cccc2ccccc12` (stereo not shown) [compound 18, propranolol], the “TLX-regulated SIRT1 and PTEN/TET3 expression” value ([12]; qRT-PCR) is given as “modulated”.

In the case of `CCCCOc1cc(C(=O)Nc2cc(-n3cnc(C)c3)cc(C(F)(F)F)c2)c2ccccc2n1` [compound 19], the cytotoxicity [13] is reported as “non-toxic”, the TLX modulation [14] is reported as “TLX activation” and the “selectivity over other nuclear receptors” value [15] is reported as “selective over other nuclear receptors”. For the same compound, the EC50 [16] was 700 nM, the EC50 ([1]; read-out: Gal4-TLX EC50) was 250 nM and the IC50 ([1]; reporter gene assay, read-out: IC50 (first value of cell)) was 250 nM. The “Oil red O positive area (amount of fat)” value [7] was “increased”, the “fat droplet (particle) size” value [7] was “increased” and the Kd [17] was 500 nM. For the same compound, the TLX expression levels [18] was “no effect” and the SIRT1 expression [12] was “induced SIRT1 expression”.

In the case of `Cn1c(=O)c2[nH]c(-c3ccccc3Cl)nc2n(C)c1=O` [compound 20, 8-(2-chlorophenyl)-theophylline], the IC50 [1, 19] is given as 500 nM and the Kd [17] is given as 800 nM.

In the case of `Cn1c(=O)c2[nH]c(-c3ccccc3)nc2n(C)c1=O` [compound 21, 8-Phenyl-theophylline], the cytotoxicity [13] is reported as “non-toxic”, the TLX modulation [14] is reported as “inverse agonism” and the “selectivity over other nuclear receptors” value [15] is reported as “selective over other nuclear receptors”. For the same compound, the “Oil red O positive area (amount of fat)” value [7] was “no effect” and the “fat droplet (particle) size” value [7] was “no effect”.
